Source: patent publication US5250563A, “Inhibitors of HIV protease” (Merck & Co., Inc., priority 1992, dated 1993)

Assays:
HIV protease [1] = target: T1, HIV protease (Human immunodeficiency virus type 1 group M subtype B, UniProt P04585); test: Assay for Inhibition of Recombinant HIV Protease (tritiated peptide substrate cleavage); assay type: biochemical; parameters: the HIV protease expressed in Escherichia coli; made in house; host or cells: Escherichia coli; conditions: pH 5.5, 60 minutes at 37° C., HIV protease expressed in Escherichia coli, [3H]-peptide substrate
Description: Assay for Inhibition of Recombinant HIV Protease
Inhibition studies were performed on the reaction of the HIV protease expressed in Escherichia coli with a tritiated peptide substrate, [^3 H]-acetyl-Val-Ser-Gln-Asn-(beta-napthyl-Ala)-Pro-Ile-Val-Gin-Gly-Arg-Arg-NH2 (MW 1800). The two arginine residues at the carboxyl terminus give this peptide an overall positive charge at acidic pH and enable it to bind to the H^+ form of DOWEX AG-50W-X8 resin and similar resins.
Aliquots of 25 μl containing 6.0-8.0 nM HIV protease in assay buffer (100 mM sodium acetate, pH 5.5 and 0.1% BSA) are placed in assay tubes. The reaction is initiated by addition of 25 μl aliquots of 4.2 μM tritiated peptide substrate in 100 mM sodium acetate, pH 5.5. After incubation for 60 minutes at 37° C., the reaction is stopped with 100 μl of 5% H3 PO4, then analysed by application of column chromatography.

HIV protease [2] = target: T1, HIV protease; test: peptide cleavage assay (HIV protease assay); assay type: biochemical

SMILES: C=C1C(C)C2C(Cc3cccc(O)c3)NC(=O)C23C(OC(C)=O)C=CC(C)CC(CO)CC=CC3C1O (centres unmarked) [Compound 4]
- IC50 (HIV protease [1]): 25 µM

SMILES: C=C1C(C)C2C(Cc3cccc(O)c3)NC(=O)C23C(OC(C)=O)C=CC(C)CC(O)(CO)CC=CC3C1O (centres unmarked) [Compound 7]
- IC50 (HIV protease [1]): > 50 µM

SMILES: C=C1C(C)C2C(Cc3ccc(O)c(O)c3)NC(=O)C23C(OC(C)=O)C=CC(C)CC(CO)CC=CC3C1O (centres unmarked) [Compound 5]
- IC50 (HIV protease [1]): > 50 µM

SMILES: C=C1C(C)C2C(Cc3ccccc3)NC(=O)C23C(OC(C)=O)C=CC(C)CC(C)CC=CC3C1O (centres unmarked) [Compound 1]
- IC50 (HIV protease [2]): ~6.28 µM
- IC50 (HIV protease [1]): 10 µM

SMILES: C=C1C(C)C2C(Cc3ccccc3)NC(=O)C23C(OC(C)=O)C=CC(C)CC(O)(CO)CC=CC3C1O (centres unmarked) [Compound 6]
- IC50 (HIV protease [1]): > 50 µM

SMILES: C=C1C(C)C2C(Cc3ccccc3)NC(=O)C23C(OC(C)=O)C=CC(C)CC(CO)CC=CC3C1O (centres unmarked) [Compound 2]
- IC50 (HIV protease [1]): 43 µM

SMILES: C=C1C(C)C2C(Cc3ccc(O)cc3)NC(=O)C23C(OC(C)=O)C=CC(C)CC(CO)CC=CC3C1O (centres unmarked) [Compound 3]
- IC50 (HIV protease [1]): 40 µM
